{"source": "patent US20230310388A1", "about": "“Methods and Compositions for Treating Fungal Infections” (Neoculi Pty Ltd, priority 2020, published 2023)", "note": "Several values for one entry are separate records, joined by “and”; a condition that tells them apart may be missing. Equal entries are not always repeated.", "data": [{"system": "Candida albicans ATCC14053", "assay": "Broth micro-dilution screen at 16 μg/mL and MIC (Example 9)", "type": "cell-based", "details": "C. albicans ATCC14053; test range 0.25-64 μg/mL; duplicate", "description": "(§1) The antifungal activity of 201 NCL analogs against Candida albicans ATCC14053 in vitro was investigated. A broth micro-dilution method was used, according to CLSI guidelines as described. NCL analogs were dissolved in DMSO and originally screened at a single concentration of 16 μg/mL.", "values": [{"smiles": "Cc1ccccc1/C=N/NC(=N)N/N=C/c1ccccc1C.Cl", "note": "[NCL039]", "MIC": "4 µg/mL and 8 µg/mL"}, {"smiles": "C/C(=N\\NC(=N)N/N=C(\\C)c1ccc(C)cc1)c1ccc(C)cc1.Cl", "note": "[NCL217]", "MIC": "4 µg/mL"}, {"smiles": "COc1ccc(C=NNC(=N)NN=Cc2ccc(OC)cc2)cc1.Cl", "note": "[NCL027]", "MIC": "8 µg/mL and 16 µg/mL"}, {"smiles": "Cl.N=C(NN=Cc1ccc(Br)cc1)NN=Cc1ccc(Br)cc1", "note": "[NCL134]", "MIC": "<1 µg/mL"}]}, {"system": "Candida albicans ATCC14053", "assay": "Broth micro-dilution screen at 16 μg/mL and MIC (Example 9)", "type": "cell-based", "details": "single concentration 16 μg/mL; Growth or No growth of C. albicans ATCC14053", "description": "as §1", "values": [{"smiles": "CC(=NNC(=N)NN=C(C)c1ccc(C(F)(F)F)cc1)c1ccc(C(F)(F)F)cc1.Cl", "note": "[NCL061]", "Screen at 16 μg/mL": "Growth"}, {"smiles": "Cc1ccccc1/C=N/NC(=N)N/N=C/c1ccccc1C.Cl", "note": "[NCL039]", "Screen at 16 μg/mL": "No growth"}, {"smiles": "Cl.N=C(NN=Cc1ccncc1)NN=Cc1ccncc1", "note": "[NCL149]", "Screen at 16 μg/mL": "Growth"}, {"smiles": "CC(=NNc1cc(NN=C(C)c2ccc(Cl)cc2)ncn1)c1ccc(Cl)cc1", "note": "[NCL178]", "Screen at 16 μg/mL": "Growth"}, {"smiles": "Cl.N=C(NN=Cc1cccc(O)c1)NN=Cc1cccc(O)c1", "note": "[NCL108]", "Screen at 16 μg/mL": "Growth"}, {"smiles": "Cc1nc[nH]c1C=NNC(=N)N.Cl", "note": "[NCL283]", "Screen at 16 μg/mL": "Growth"}, {"smiles": "Nc1nc(NN=Cc2ccc(Br)cc2)nc(NN=Cc2ccc(Br)cc2)n1", "note": "[NCL212]", "Screen at 16 μg/mL": "Growth"}, {"smiles": "Cl.N=C(NN=CC=Cc1ccccc1)NN=CC=Cc1ccccc1", "note": "[NCL096]", "Screen at 16 μg/mL": "Growth"}, {"smiles": "Cl.N=C(N)NN=Cc1cnc2ccccc2n1", "note": "[NCL278]", "Screen at 16 μg/mL": "Growth"}, {"smiles": "COc1cccc(C=NNC(=N)NN=Cc2cccc(OC)c2)c1.Cl", "note": "[NCL029]", "Screen at 16 μg/mL": "Growth"}, {"smiles": "Cl.N=C(N)NN=Cc1ccccc1Cl", "note": "[NCL015]", "Screen at 16 μg/mL": "Growth"}, {"smiles": "COc1ccccc1C=NNC(=N)NN=Cc1ccccc1OC.Cl", "note": "[NCL028]", "Screen at 16 μg/mL": "Growth"}, {"smiles": "C/C(=N\\NC(=N)N/N=C(\\C)c1ccc(C)cc1)c1ccc(C)cc1.Cl", "note": "[NCL217]", "Screen at 16 μg/mL": "No growth"}, {"smiles": "Nc1nc(NN=Cc2ccccc2)nc(NN=Cc2ccccc2)n1", "note": "[NCL214]", "Screen at 16 μg/mL": "Growth"}, {"smiles": "Cl.N=C(N)N/N=C/c1cccc2nsnc12", "note": "[NCL281]", "Screen at 16 μg/mL": "Growth"}, {"smiles": "Cl.N=C(NN=Cc1ccccc1-c1ccccc1)NN=Cc1ccccc1-c1ccccc1", "note": "[NCL116]", "Screen at 16 μg/mL": "Growth"}, {"smiles": "Nc1nc(NN=Cc2ccc(O)cc2)nc(NN=Cc2ccc(O)cc2)n1", "note": "[NCL211]", "Screen at 16 μg/mL": "Growth"}, {"smiles": "Nc1nc(NN=Cc2ccc(Cl)cc2)cc(NN=Cc2ccc(Cl)cc2)n1", "note": "[NCL179]", "Screen at 16 μg/mL": "Growth"}, {"smiles": "Nc1nc(NN=CCCc2ccccc2)cc(NN=CCCc2ccccc2)n1", "note": "[NCL262]", "Screen at 16 μg/mL": "Growth"}, {"smiles": "Clc1ccc(C=NCCCN=Cc2ccc(Cl)cc2)cc1", "note": "[NCL252]", "Screen at 16 μg/mL": "Growth"}, {"smiles": "CC(=NNC(=N)NN=C(C)c1ccc(Br)cc1)c1ccc(Br)cc1.Cl", "note": "[NCL155]", "Screen at 16 μg/mL": "Growth"}, {"smiles": "COc1ccc(C=NNC(=N)NN=Cc2ccc(OC)cc2)cc1.Cl", "note": "[NCL027]", "Screen at 16 μg/mL": "No growth"}, {"smiles": "Cl.N=C(N)NN=Cc1cccc(F)c1", "note": "[NCL017]", "Screen at 16 μg/mL": "Growth"}, {"smiles": "Cl.N=C(NN=Cc1ccc(O)c([N+](=O)[O-])c1)NN=Cc1ccc(O)c([N+](=O)[O-])c1", "note": "[NCL122]", "Screen at 16 μg/mL": "Growth"}, {"smiles": "Cl.N=C(N)N/N=C/c1ccc(Cl)cc1", "note": "[NCL030]", "Screen at 16 μg/mL": "Growth"}, {"smiles": "Nc1nc(NN=Cc2ccc(C(F)(F)F)cc2)cc(NN=Cc2ccc(C(F)(F)F)cc2)n1", "note": "[NCL221]", "Screen at 16 μg/mL": "Growth"}, {"smiles": "N=C(N)NN=C(CC1CCCCC1)c1ccc(Cl)cc1O", "note": "[NCL237]", "Screen at 16 μg/mL": "Growth"}, {"smiles": "Cl.N=C(N)N/N=C/c1ccc(C(F)(F)F)cc1", "note": "[NCL041]", "Screen at 16 μg/mL": "Growth"}, {"smiles": "Nc1nc(N/N=C/c2ccc(F)c(F)c2)cc(N/N=C/c2ccc(F)c(F)c2)n1", "note": "[NCL222]", "Screen at 16 μg/mL": "Growth"}, {"smiles": "Cl.N=C(NN=Cc1ccccc1[N+](=O)[O-])NN=Cc1ccccc1[N+](=O)[O-]", "note": "[NCL102]", "Screen at 16 μg/mL": "Growth"}, {"smiles": "Cl.N=C(NN=Cc1ccc(Br)cc1)NN=Cc1ccc(Br)cc1", "note": "[NCL134]", "Screen at 16 μg/mL": "No growth"}, {"smiles": "Cl.N=C(N)NN=Cc1cccc(Cl)c1", "note": "[NCL052]", "Screen at 16 μg/mL": "Growth"}, {"smiles": "Cl.N=C(N)NN=Cc1cccc(C(F)(F)F)c1", "note": "[NCL043]", "Screen at 16 μg/mL": "Growth"}, {"smiles": "CC(=NNC(=N)NN=C(C)c1ccc(Cl)cc1F)c1ccc(Cl)cc1F.Cl", "note": "[NCL215]", "Screen at 16 μg/mL": "Growth"}, {"smiles": "CCCCC(=NNC(=N)NN=C(CCCC)c1ccc(Cl)cc1)c1ccc(Cl)cc1.Cl", "note": "[NCL154]", "Screen at 16 μg/mL": "Growth"}, {"smiles": "CC(=O)Nc1ccc(C=NNc2cc(NN=Cc3ccc(NC(C)=O)cc3)nc(N)n2)cc1", "note": "[NCL223]", "Screen at 16 μg/mL": "Growth"}]}]}
